Test systems include SF-539 CNS; OVCAR-8 ovarian; MALME-3M melanoma; NCI-H460 lung; SR leukemia; UACC-257 melanoma; NCI-H226 lung; SW-620 colon; NCI/ADR-RES ovarian; MDA-MB-435.
Experiment in all cases: growth of human tumour cells (NCI), 48 h

Several values for one entry are separate records, joined by “and”; a condition that tells them apart may be missing. Identical values can stand only once.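 How tested: cells in 96-well plates exposed to compound for 48 hours at five concentrations. GI50 = concentration required for 50% inhibition of growth. TGI: concentration producing complete growth inhibition.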

For the molecule `COC1C2C[C@@H](O)CCC2C(C(=O)OCCl)C[C@H]1O` (some centres undefined), the TGI with SF-539 CNS, in the assay with OVCAR-8 ovarian, with MALME-3M melanoma, with NCI-H460 lung, in the assay on SR leukemia and in the assay with UACC-257 melanoma was > 100 µM in each case. The TGI with NCI-H226 lung and in the assay on SW-620 colon was > 100 µM throughout.
On to `Nc1nnc2c(-c3ccccc3)[nH]nc2n1`, for which the TGI in the assay with SF-539 CNS, in the assay on OVCAR-8 ovarian, in the assay on NCI-H460 lung, in the assay with SR leukemia, with UACC-257 melanoma and with NCI-H226 lung was > 100 µM each time. Further, in the assay on SW-620 colon, the TGI is > 100 µM.
In the case of `O=C(c1ccc(O)cc1O)C1C(c2ccc(O)cc2)OC(c2ccc(O)cc2)C1C(=O)c1ccc(O)cc1O` (centres undefined), the TGI in the assay on SF-539 CNS was 47.1 µM; in the assay on OVCAR-8 ovarian, 56.8 µM; in the assay with MALME-3M melanoma, 31.2 µM; with NCI-H460 lung, > 100 µM; in the assay on UACC-257 melanoma, 39.7 µM; with NCI-H226 lung it was 40.4 µM. Besides, the TGI in the assay on SW-620 colon was > 100 µM.
For `COc1ccc(-c2cc(=O)c3c(O)c(OC)c(OC)c(OC)c3o2)cc1OC`, the TGI is > 100 µM in the assay with SF-539 CNS; > 100 µM in the assay with OVCAR-8 ovarian; > 100 µM in the assay with MALME-3M melanoma; > 100 µM in the assay with SR leukemia; > 100 µM in the assay on UACC-257 melanoma; > 100000 nM in the assay with NCI/ADR-RES ovarian. The TGI in the assay with NCI-H226 lung was > 100 µM.
In the case of `CN(C)CCNC(=O)c1cccc2c1nc(-c1ccc(F)cc1)c1ccccc12`, the TGI came out at 13.8 µM in the assay on SF-539 CNS; 18.2 µM in the assay with OVCAR-8 ovarian; 12 µM in the assay with NCI-H460 lung; 11.2 µM with UACC-257 melanoma; 9.31 µM in the assay with NCI-H226 lung; 14.8 µM in the assay on SW-620 colon.
Turning to `Cn1c(CBr)nc2c1C(=O)c1nc(CBr)[nH]c(=O)c1C2=O`, the TGI with SF-539 CNS, with OVCAR-8 ovarian, with NCI-H460 lung and with SW-620 colon was > 100 µM in each case.
In the case of `Nc1ccc2n[se]nc2c1`, the TGI in the assay on SF-539 CNS, in the assay with OVCAR-8 ovarian, with MALME-3M melanoma, with NCI-H460 lung, with SR leukemia and with UACC-257 melanoma was > 100 µM throughout. The TGI in the assay with SW-620 colon is > 100 µM.
On to `CC1(C)CCC(Sc2ccccc2)O1` (centres undefined), for which the TGI with SF-539 CNS, with OVCAR-8 ovarian, in the assay on NCI-H460 lung, in the assay on SR leukemia, in the assay on UACC-257 melanoma and with SW-620 colon was > 100 µM each time.
Regarding `COC1=C(N)C(=O)c2nc(-c3nc(C(=O)O)c(C)c(-c4ccc(OC)c(OC)c4O)c3N)ccc2C1=O`, the GI50 in the assay on MDA-MB-435 was 26.6 nM and 10.4 nM; in the assay on UACC-257 melanoma, 3.21 nM and 12.2 nM and 22.4 nM; in the assay with NCI/ADR-RES ovarian it was 1.21 nM and 8.09 nM; in the assay with NCI-H226 lung, 1.26 nM and 3.19 nM; with SW-620 colon, 1.24 nM and 6.53 nM. Moreover, the TGI in the assay with OVCAR-8 ovarian is 0.00226 µM and 0.022 µM and 0.0194 µM; with NCI/ADR-RES ovarian it was 15.1 nM and 94 nM and 16.9 nM; with SW-620 colon, 0.00424 µM and 0.0268 µM and 0.0181 µM.
`Cc1ccc(C(=O)CC2(O)C(=O)Nc3c(C)cc(Cl)cc32)cc1` (centres undefined): the TGI in the assay with OVCAR-8 ovarian, in the assay with MALME-3M melanoma, in the assay on NCI-H460 lung, with UACC-257 melanoma, with NCI-H226 lung and in the assay on SW-620 colon was > 100 µM throughout.
On to `CC(=O)C1CCN(c2ccccc2)C1` (centres undefined), for which the TGI in the assay on SF-539 CNS, in the assay with OVCAR-8 ovarian, in the assay with NCI-H460 lung, in the assay with SR leukemia, in the assay on UACC-257 melanoma and with NCI-H226 lung was > 100 µM each time. For the same molecule, in the assay with SW-620 colon, the TGI was > 100 µM.
Regarding `COc1cc[c]([Sn]([c]2ccc(OC)cc2)([c]2ccc(OC)cc2)[c]2ccc(OC)cc2)cc1`, the GI50 with SF-539 CNS is 16.8 µM; in the assay on OVCAR-8 ovarian it was 27.1 µM; with MALME-3M melanoma, 3.31 µM; with NCI-H460 lung, 30.5 µM; with SW-620 colon, 18900 nM. Also, the TGI in the assay on SF-539 CNS is 48.6 µM; with OVCAR-8 ovarian it was > 100 µM; with MALME-3M melanoma, 8.43 µM; with NCI-H460 lung, > 100 µM; with SW-620 colon, 55.9 µM.
As to `CC(C)(CN1C(=O)C(Cl)=C(Cl)C1=O)CN1C(=O)C(Cl)=C(Cl)C1=O`, the TGI in the assay on SF-539 CNS was 38.8 µM; in the assay with OVCAR-8 ovarian, 14.7 µM; in the assay on MALME-3M melanoma, 16.7 µM; with NCI-H460 lung, > 77.3 µM; in the assay with SR leukemia it was 36 µM; in the assay on UACC-257 melanoma, 29 µM. Also, the TGI in the assay on NCI-H226 lung stood at 53.4 µM; with SW-620 colon it was 15.3 µM.
`Cc1nc(N)nc(N)c1CCCCc1ccc(N)cc1`: the TGI in the assay with SF-539 CNS stood at 21.7 µM; with OVCAR-8 ovarian it was 20.6 µM; in the assay with MALME-3M melanoma, 18.2 µM; with NCI-H460 lung, 13.6 µM; in the assay on SR leukemia, 24.7 µM; in the assay with UACC-257 melanoma, 18.5 µM. Further, the TGI with NCI-H226 lung amounted to 56.1 µM; in the assay on SW-620 colon, 19.8 µM.
Regarding `CC(C)(C)c1cc(CCC(=O)Nc2ccc(Cl)cc2)[nH]c(=S)n1`, the TGI with SF-539 CNS, in the assay with OVCAR-8 ovarian, in the assay on MALME-3M melanoma, with NCI-H460 lung, with UACC-257 melanoma and with NCI-H226 lung was > 100 µM each time. Further, in the assay with SW-620 colon, the TGI was > 100 µM.
In the case of `COC(=O)C(=O)Cc1nc2ccccc2s1`, the TGI in the assay on SF-539 CNS, in the assay on OVCAR-8 ovarian, with MALME-3M melanoma, in the assay on SR leukemia, in the assay with UACC-257 melanoma and in the assay with NCI-H226 lung was > 100 µM each time. For the same molecule, the TGI in the assay with SW-620 colon was > 100 µM.
As to `CN=c1ss/c(=N\C(=S)N(C)C)n1C`, the TGI in the assay with SF-539 CNS, in the assay on OVCAR-8 ovarian, in the assay with MALME-3M melanoma, in the assay with NCI-H460 lung, in the assay on SR leukemia and in the assay on UACC-257 melanoma was > 100 µM each time. The TGI in the assay with NCI-H226 lung and with SW-620 colon was > 100 µM throughout.
For the molecule `COC(=O)CCSC(=O)Nc1ccc(N=Nc2ccccc2)cc1`, the TGI in the assay on SF-539 CNS, in the assay with OVCAR-8 ovarian, in the assay with MALME-3M melanoma, in the assay on NCI-H460 lung, in the assay on SR leukemia and in the assay on UACC-257 melanoma was > 100 µM in each case. The TGI in the assay on NCI-H226 lung and with SW-620 colon was > 100 µM each time.

The values are drawn from PubChem BioAssay (NCI).
